Tested on: bacteria/yeast and mold
Test: Antimicrobial Preservation Effectiveness Test (micro robustness), double challenge test
Format: cell-based
Conditions: in the mouthwash formulations, separately or in combination
Description: The Antimicrobial Preservation Effectiveness Test is used to determine the antimicrobial preservation effectiveness of water-based product formulations by means of a double challenge test. Products are developed to withstand microbial challenges introduced by normal consumer use. The test is run on an aged sample (13 weeks, 40° C.). The test uses two pools of microorganisms: bacteria/yeast and mold. The product is challenged at a 1% level at day 0 and at day 7. Reduction of the inoculum is monitored over a 28 day period. The following are the acceptance criteria for mouth wash formulas. • Bacteria and yeast must show a 99.9% reduction (3 logs) of the bacterial inoculum as determined by plate count on day 7 following each inoculation. No increase after day 7 of the second inoculation and for the remainder of the test within normal variation of the data. • Mold must show a 90.0% reduction (1 log) of the mold inoculum as determined by the plate count on day 14 following the second inoculation (day 21). No increase from day 14 to day 21 of the second inoculation of the test within normal variation of the data.

SMILES | microbial control
OCc1ccccc1 [Benzyl alcohol, benzyl alcohol] | acceptable
Cn1sccc1=O [MIT, methylisothiazolinone] | acceptable
